Experimental data: ChEMBL document CHEMBL1201862, “PubChem BioAssay data set” (2004)
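Briefly, cells in 96-well plates were exposed to five compound concentrations for 48 h, and endpoints were estimated by linear interpolation. GI50: concentration for 50% inhibition of growth.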 Active and inactive are the calls of the source. Rule as the data show it: active = GI50 up to about 1.1 µM and inactive = higher.

Columns and labels:
Assay in all cases: inhibition of tumour cell growth, NCI panel, 48 h
DU-145 = test system: DU-145
SF-268 = test system: SF-268
SK-MEL-28 = test system: SK-MEL-28
COLO 205 = test system: COLO 205
A498 = test system: A498
M14 = test system: M14
NCI/ADR-RES = test system: NCI/ADR-RES
SNB-75 = test system: SNB-75
HOP-92 = test system: HOP-92
SN12C = test system: SN12C
SK-MEL-2 = test system: SK-MEL-2
RPMI-8226 = test system: RPMI-8226
UACC-257 = test system: UACC-257
MDA-MB-435 = test system: MDA-MB-435
SK-OV-3 = test system: SK-OV-3
HCT-15 = test system: HCT-15
OVCAR-4 = test system: OVCAR-4
PC-3 = test system: PC-3
MCF7 = test system: MCF7
UO-31 = test system: UO-31

| SMILES | GI50 (DU-145) | GI50 (SF-268) | GI50 (SK-MEL-28) | GI50 (COLO 205) | GI50 (A498) | GI50 (M14) | GI50 (NCI/ADR-RES) | GI50 (SNB-75) | GI50 (HOP-92) | GI50 (SN12C) | GI50 (SK-MEL-2) | GI50 (RPMI-8226) | GI50 (UACC-257) | GI50 (MDA-MB-435) | GI50 (SK-OV-3) | GI50 (HCT-15) [µM] | GI50 (OVCAR-4) | GI50 (PC-3) | GI50 (MCF7) | GI50 (UO-31) |
| --- | --- | --- | --- | --- | --- | --- | --- | --- | --- | --- | --- | --- | --- | --- | --- | --- | --- | --- | --- | --- |
| CC(C)(C)OC(=O)NC1CCCC1C(O)(C1=CCCC1)C1=CCCC1 (stereo not drawn) | > 100 µM (inactive) | > 100 µM (inactive) | > 100 µM (inactive) | > 100 µM (inactive) | > 100 µM (inactive) | > 100 µM (inactive) | > 100 µM (inactive) | 48.1 µM (inactive) | > 100 µM (inactive) | > 100 µM (inactive) | > 100 µM (inactive) | > 100 µM (inactive) | > 100 µM (inactive) | > 100 µM (inactive) | > 100 µM (inactive) | > 100 | 67.6 µM (inactive) | > 100 µM (inactive) | – | – |
| CCCCOC(=O)C(=O)C(CC(CC)C(=O)c1ccccc1)C(=O)C=C(C)C (stereo not drawn) | > 100 µM (inactive) | > 100 µM (inactive) | > 100 µM (inactive) | > 100 µM (inactive) | – | > 100 µM (inactive) | > 100 µM (inactive) | > 100 µM (inactive) | > 100 µM (inactive) | > 100 µM (inactive) | > 100 µM (inactive) | – | > 100 µM (inactive) | > 100 µM (inactive) | > 100 µM (inactive) | > 100 | > 100 µM (inactive) | > 100 µM (inactive) | > 100 µM (inactive) | > 100 µM (inactive) |
| CN1C(c2ccccc2)CC(C)(O)CC1c1ccccc1 (stereo not drawn) | – | > 100 µM (inactive) | > 100 µM (inactive) | > 100 µM (inactive) | > 100 µM (inactive) | > 100 µM (inactive) | – | > 100 µM (inactive) | > 100 µM (inactive) | > 100 µM (inactive) | > 100 µM (inactive) | > 100 µM (inactive) | > 100 µM (inactive) | – | > 100 µM (inactive) | > 100 | > 100 µM (inactive) | – | – | > 100 µM (inactive) |
| COc1ccc(N2C(=O)C3c4[nH]c5ccccc5c4C4CCC(C(C)(C)C)CC4C3C2=O)c(C)c1 (stereo not drawn) | > 100 µM (inactive) | > 100 µM (inactive) | > 100 µM (inactive) | > 100 µM (inactive) | – | > 100 µM (inactive) | > 100 µM (inactive) | > 100 µM (inactive) | – | > 100 µM (inactive) | – | > 100 µM (inactive) | > 100 µM (inactive) | > 100 µM (inactive) | > 100 µM (inactive) | > 100 | > 100 µM (inactive) | > 100 µM (inactive) | > 100 µM (inactive) | > 100 µM (inactive) |
| COC(=O)CSC1CC(=O)c2c(Cl)sc(Cl)c21 (stereo not drawn) | > 100 µM (inactive) | > 100 µM (inactive) | > 100 µM (inactive) | > 100 µM (inactive) | – | > 100 µM (inactive) | – | > 100 µM (inactive) | > 100 µM (inactive) | > 100 µM (inactive) | > 100 µM (inactive) | – | > 100 µM (inactive) | > 100 µM (inactive) | > 100 µM (inactive) | > 100 | > 100 µM (inactive) | > 100 µM (inactive) | > 100 µM (inactive) | > 100 µM (inactive) |
| O=C1CCC(=O)c2cc(Br)ccc2N1 | – | > 100 µM (inactive) | > 100 µM (inactive) | > 100 µM (inactive) | > 100 µM (inactive) | > 100 µM (inactive) | – | > 100 µM (inactive) | > 100 µM (inactive) | > 100 µM (inactive) | > 100 µM (inactive) | > 67.5 µM (inactive) | > 100 µM (inactive) | – | > 100 µM (inactive) | > 100 | > 100 µM (inactive) | – | – | > 100 µM (inactive) |
| C1CC[C@H]2SSC3CCCC[C@H]3SSC2C1 (stereo partly drawn) | > 100 µM (inactive) | > 100 µM (inactive) | > 100 µM (inactive) | > 100 µM (inactive) | – | > 100 µM (inactive) | > 100 µM (inactive) | > 100 µM (inactive) | > 100 µM (inactive) | > 100 µM (inactive) | – | > 100 µM (inactive) | > 100 µM (inactive) | > 100 µM (inactive) | > 100 µM (inactive) | > 100 | > 100 µM (inactive) | > 100 µM (inactive) | > 100 µM (inactive) | > 100 µM (inactive) |
| CCOC(=O)Cc1csc2[n+]1C(=O)/C(=C\c1cccc(Cl)c1Cl)S2 | 16.9 µM (inactive) | 29.2 µM (inactive) | 19.5 µM (inactive) | 1.7 µM (inactive) | – | 26.9 µM (inactive) | 16.7 µM (inactive) | 23.8 µM (inactive) | 6.85 µM (inactive) | 16.2 µM (inactive) | 10.6 µM (inactive) | – | 20.1 µM (inactive) | 13.7 µM (inactive) | 17.3 µM (inactive) | 16.2 | 11.6 µM (inactive) | 13.3 µM (inactive) | 28.1 µM (inactive) | 12.7 µM (inactive) |
| COc1ccc(-c2cc(-c3cc4cc(Br)ccc4nc3Cl)c(C#N)c(N)n2)cc1 | > 12.5 µM (inactive) | > 12.5 µM (inactive) | > 12.5 µM (inactive) | > 12.5 µM (inactive) | – | > 12.5 µM (inactive) | > 12.5 µM (inactive) | > 12.5 µM (inactive) | > 12.5 µM (inactive) | > 12.5 µM (inactive) | > 12.5 µM (inactive) | > 12.5 µM (inactive) | – | > 12.5 µM (inactive) | > 12.5 µM (inactive) | > 12.5 | > 12.5 µM (inactive) | > 12.5 µM (inactive) | > 12.5 µM (inactive) | > 12.5 µM (inactive) |
| Cc1c(CNc2ccc(Cl)c(C(=O)NC(CC(=O)O)C(=O)O)c2)ccc2nc(N)nc(N)c12 (stereo not drawn) | 0.0588 µM (active) | 0.209 µM (active) | 10.1 µM (inactive) | 4.66 µM (inactive) | 1.52 µM (inactive) | 0.0163 µM (active) | – | > 32.3 µM (inactive) | – | 0.57 µM (active) | > 100 µM (inactive) | > 100 µM (inactive) | 5.55 µM (inactive) | < 0.01 µM (active) | 33.7 µM (inactive) | 0.0265 | – | 178 µM (inactive) | 0.499 µM (active) | 0.665 µM (active) |
| NNC(=O)CCC(=O)Nc1ccc(Cl)cc1Cl | – | > 100 µM (inactive) | > 100 µM (inactive) | > 100 µM (inactive) | > 100 µM (inactive) | 45.1 µM (inactive) | – | > 100 µM (inactive) | > 100 µM (inactive) | > 100 µM (inactive) | 54.6 µM (inactive) | 80.5 µM (inactive) | > 100 µM (inactive) | – | > 100 µM (inactive) | 66.2 | > 100 µM (inactive) | – | – | > 100 µM (inactive) |
| O=CC1CCCc2ccccc21 (stereo not drawn) | – | > 31.6 µM (inactive) | > 100 µM (inactive) | > 42.7 µM (inactive) | > 100 µM (inactive) | > 100 µM (inactive) | – | > 100 µM (inactive) | > 100 µM (inactive) | > 100 µM (inactive) | > 100 µM (inactive) | > 43.1 µM (inactive) | > 74.3 µM (inactive) | – | > 100 µM (inactive) | > 51.5 | > 100 µM (inactive) | – | – | > 100 µM (inactive) |
| [N-]=[N+]=C(C(=O)N1CCCC1=O)S(=O)(=O)c1ccccc1 | > 100 µM (inactive) | > 100 µM (inactive) | 48.5 µM (inactive) | > 100 µM (inactive) | – | 91.2 µM (inactive) | > 100 µM (inactive) | 87.7 µM (inactive) | – | > 100 µM (inactive) | 62.5 µM (inactive) | 48.3 µM (inactive) | > 100 µM (inactive) | 77.8 µM (inactive) | – | 51.9 | – | > 100 µM (inactive) | 32.7 µM (inactive) | > 100 µM (inactive) |
| O=C(c1ccccc1)[C@H]1Nc2cnccc2C2c3ccccc3CC21 (stereo partly drawn) | – | 7.35 µM (inactive) | 14.1 µM (inactive) | 19.8 µM (inactive) | 25.9 µM (inactive) | 6.82 µM (inactive) | – | 16.2 µM (inactive) | 13.1 µM (inactive) | 8.59 µM (inactive) | 11.1 µM (inactive) | 7 µM (inactive) | 13.2 µM (inactive) | – | 20.2 µM (inactive) | 8.95 | 0.564 µM (active) | – | – | 7.21 µM (inactive) |
| O=[N+]([O-])c1cccc(/C=N\NS(=O)(=O)c2ccc(Cl)cc2)c1O | – | > 100 µM (inactive) | 46.9 µM (inactive) | 69.8 µM (inactive) | > 100 µM (inactive) | 90.8 µM (inactive) | – | > 100 µM (inactive) | 42.6 µM (inactive) | > 100 µM (inactive) | 76.6 µM (inactive) | 55.5 µM (inactive) | > 100 µM (inactive) | – | > 100 µM (inactive) | 52.5 | > 100 µM (inactive) | – | – | 67.3 µM (inactive) |
| COc1cc2nc(Nc3cccc(Br)c3)nc(Nc3cccc(Br)c3)c2cc1OC | 18.3 µM (inactive) | 16.2 µM (inactive) | 17.2 µM (inactive) | 13.9 µM (inactive) | – | 18.2 µM (inactive) | 19.6 µM (inactive) | 17.3 µM (inactive) | 15.3 µM (inactive) | 16.4 µM (inactive) | 18.4 µM (inactive) | – | > 10 µM (inactive) | 19.7 µM (inactive) | 19.2 µM (inactive) | 17.7 | 15.7 µM (inactive) | 20.4 µM (inactive) | 16.9 µM (inactive) | 16 µM (inactive) |
| O=C(Nc1ccccc1)N(C1=NCC(CI)S1)c1ccc(F)c(F)c1 (stereo not drawn) | > 100 µM (inactive) | 21.3 µM (inactive) | 12.4 µM (inactive) | 56.1 µM (inactive) | 24.9 µM (inactive) | – | 30.8 µM (inactive) | 12.6 µM (inactive) | 7.03 µM (inactive) | 81.5 µM (inactive) | 23.9 µM (inactive) | 21.2 µM (inactive) | 31 µM (inactive) | – | > 100 µM (inactive) | 28.1 | 29.4 µM (inactive) | 25.4 µM (inactive) | 22.4 µM (inactive) | 44.7 µM (inactive) |
